Measured values published in paper PMC6478823, “A suite of phenotypic assays to ensure pipeline diversity when prioritizing drug-like Cryptosporidium growth inhibitors” (Nature Communications, 2019).

Assays:
[1] = system: C. parvum; test: 48 h Cryptosporidium growth inhibition assay; format: cell-based, Cryptosporidium parvum; details: Cryptosporidium parvum, HCT-8, read-out: Regular 3 to 48 h assay in vitro EC90, C. parvum in HCT-8 cells; compound added 3 h post-infection, read at 48 h
Text: As a first step in developing specific Cryptosporidium mode of action assays, we conducted a series of light microscopy time-lapse and transmission electron microscopy (TEM) time course experiments in order to precisely define C. parvum development within the HCT-8 cell culture system. […] This synchronicity was exploited by modifying a previously developed high-content microscopy assay. These assay modifications enabled the evaluation of several key events within the life cycle: host cell invasion, intracellular replication, host cell egress and establishment of new parasitophorous vacuoles, and sexual differentiation. […] Since the methods all used automated liquid handling, imaging, and image analysis, the assay methods all incorporated nuclear staining to monitor host cell numbers and enable recognition of HCT-8 cell monolayer damage, for example as an artifact from a malfunctioning plate washer or from unanticipated cytotoxicity of the compounds.
Human ileocecal adenocarcinoma (HCT-8) cells were purchased from ATCC (catalog# CCL-244) and cultured in ATCC modified RPMI-1640 medium (Gibco, catalog# A10491–01), supplemented with 10% heat-inactivated fetal bovine serum (Sigma-Aldrich, catalog# 12306C) and 120 U/mL penicillin and 120 μg/mL streptomycin (Gibco, catalog# 15140-122) (culture media). […] For all experiments, HCT-8 cells between passages 9 and 39 were used. C. parvum (Iowa isolate) oocysts were purchased from Bunchgrass Farm (Deary, ID), stored at 4 °C and used within 5 months of collection from an infected calf. To induce excystation, oocysts were first treated with 10 mM hydrochloric acid for 10 min at 37 °C, spun at 14,000×g for 4.5 min at room temperature, treated with 2 mM sodium taurocholate for 10 min at 16 °C, spun as before, and resuspended in culture media for infection.
A modification of a previously reported immunofluorescence assay was used to determine the EC50 and EC90 of compounds[13]. HCT-8 cells were grown to ≥ 90% confluence in 384-well plates (Corning, catalog# 353962) and infected with 5500 oocysts per well after they were induced for excystation as described above. Different concentrations of compounds were added 3 h post-infection and plates were incubated for another 45 h in a 5% CO2 incubator at 37 °C. Wells were then washed 3 times with PBS containing 111 mM D-galactose (PBS-D-gal), fixed with 4% paraformaldehyde (PFA) in PBS for 15 min at room temperature, permeabilized with 0.25% Triton X-100 for 10 min at 37 °C, washed 3 times with PBS with 0.1% Tween 20, and blocked with 4% bovine serum albumin (BSA) in PBS for 2 h at 37 °C or 4 °C overnight. Parasitophorous vacuoles were stained with 1.33 µg/mL of fluorescein-labeled Vicia villosa lectin (Vector Laboratories, catalog# FL-1231) diluted in 1% BSA in PBS with 0.1% Tween 20 for 1 h at 37 °C, followed by addition of Hoechst 33258 (AnaSpec, catalog# AS-83219) at 0.09 mM diluted in water for another 15 min at 37 °C. Wells were then washed 5 times with PBS containing 0.1% Tween 20. A Nikon Eclipse Ti2000 epifluorescence microscope with an automated stage was programmed using NIS-Elements Advanced Research software (Nikon, USA) to focus on the center of each well and take a 3 × 3 or 6 × 6 composite image using an EXi blue fluorescence microscopy camera (QImaging, Canada) with a 20 × objective (NA = 0.45). Nuclei and parasite images were separately exported as.tif files and analyzed using macros developed on the ImageJ platform (National Institutes of Health)[13].

[2] = system: C. parvum; test: NOD SCID gamma (NSG) mouse model of chronic cryptosporidiosis; format: in vivo; details: oral gavage, 4-day treatment course
Text: It is feasible that Cryptosporidium is most susceptible to drug treatments that show the greatest activity in only one of the mode of action assays described above, which would complicate use of these assays for maintaining a diverse anticryptosporidial pipeline. Therefore, to further test the strategy of ensuring a mechanistically diverse pipeline of anticryptosporidials, it was critical to know that compounds belonging to different phenotypic effect clusters (as in Fig. 7) could work in vivo. For this, thirty-one of the thirty-nine compounds were tested in a mouse model of cryptosporidiosis. There is considerable variability in the in vivo efficacy of anticryptosporidials tested in different mouse models[15],[34]–[39], and it remains unknown which animal models will best predict drug efficacy in humans. […] The piperazine-based compound MMV665917, however, is efficacious in both the acute IFN-γ KO and chronic NSG mouse models. […] Given that the goal of this study was to determine if compounds belonging to different phenotypic clusters might be active in vivo, we assessed in vivo efficacy using the stringent NSG mouse model.
The NOD SCID gamma mouse model for treatment of established cryptosporidiosis was reported previously. […] Oocyst shedding in feces was monitored by qPCR for 18s rRNA gene with the primers Cp18s forward and Cp18s reverse. […]

[3] = system: cryptosporidiosis; set-up: method as in PMID 19954529; details: versus approximately one-quarter of untreated children; cited from earlier work
[4] = system: Cryptosporidium; set-up: method as in Downey, et al. 2008. AAC.; details: ref Downey, et al. 2008. AAC.; cited from earlier work

SMILES	EC90 [1] [µM]	efficacy in the NSG mouse model (reduction in fecal oocyst shedding) [2]	improvement after 1 week of treatment in young children [3]	anticryptosporidial activity in neonatal mouse model [4]
CC(=O)Oc1ccccc1C(=O)Nc1ncc([N+](=O)[O-])s1 [Nitazoxanide]	3.52	no effect	just over half of children studied	–
Cc1cc(/C=C/c2ccc3cc(N(C)C)ccc3[n+]2C)c(C)n1-c1ccccc1 [Pyrvinium pamoate]	3.21	–	–	previously demonstrated anticryptosporidial activity
